The test system of data set [1] is cerebellar granule neurons from P7 rats. As to the kind of experiment: Neurite outgrowth assay, cerebellar neurons. Format: cell-based, rat. The conditions noted are these: cerebellar granule neurons; data not shown.
Data set [2] deals with catalytic domain of Rho-kinase (GST-CAT) (Bos taurus, UniProt Q28021). As to the kind of experiment: In vitro binding assay of p21 and Rho-kinase (GST-CAT). The conditions noted are these: co-incubated at the indicated concentrations.
Data set [3] concerns the target T1, Rho-kinase (Bos taurus, UniProt Q28021). As to the kind of experiment: Rho-kinase kinase assay with lysates of transfected 293T cells. Format: cell-based. The note with it: 293T cells transfected with myc-Rho-kinase; Y-27632 10 μM for 30 minutes. As to the method:
Cells were lysed with lysis buffer (50 mM Tris-HCl (pH 7.5), 150 mM NaCl, 10% glycerol, 1% Nonidet-P40 and protease inhibitor cocktail). The kinase assay was carried out using the lysates.

In data set [4] the test system is N1E-115 cells. As to the kind of experiment: Morphological analysis of N1E-115 cells. Format: cell-based. The note with it: for neurite formation / population with long neurites: Y-27632 10 μM for 30 minutes, constructs 48 hours after transfection. On the procedure: N1E-115 cells were transfected with GFP, GFP-full-p21 or GFP-ΔNLS-p21, and cultured in serum-starved condition for 5 hours. Then, the medium was replaced with DMEM containing 10% fetal bovine serum. The cells were fixed at 48 hours after transfection. The morphology of the cells was categorized into 3 groups; neurite positive cells, round cells and the other cells. The cells with longer neurites than their soma were defined as neurite positive cells. The other cells had various features including microspikes, ruffles and a flattened appearance.

In data set [5] the target is T2, Recombinant human p75-Fc chimera (Homo sapiens, UniProt P08138).
T2 construct: Recombinant p75 extracellular domain fused to Fc purified from Sf21 cells; purchased Genzyme-Techne; host or cells: Sf21 cells
T2 sequence (P08138 29-250 limits assumed): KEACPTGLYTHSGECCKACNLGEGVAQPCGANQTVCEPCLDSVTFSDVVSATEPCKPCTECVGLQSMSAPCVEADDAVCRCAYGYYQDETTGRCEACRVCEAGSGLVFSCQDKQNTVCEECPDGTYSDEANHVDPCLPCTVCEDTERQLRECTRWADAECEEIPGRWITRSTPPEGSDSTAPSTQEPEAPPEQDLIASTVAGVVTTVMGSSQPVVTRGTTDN
The data set can be described thus: Co-precipitation of recombinant p75 and gangliosides. Format: binding. The conditions noted are these: precipitation with protein A sepharose, Western blot. On the procedure:
Recombinant human p75-Fc chimera (1 μg; Genzyme-Techne) and 1 μg of purified ganglioside GT1b (>98% purity, Seikagaku Co.) were incubated in 200 μl 0.025% Tween20/PBS for 2 h, and p75 was precipitated using proteinA sepharose (Amersham Pharmacia Biotech). The resultant precipitates were electrophoretically transferred to polyvinylidene difluoride membranes after SDS-PAGE with 7% gels and were immunoblotted with anti GT1b antibody (IgM, Seikagaku Co.) or anti p75 antibody.

Data set [6] deals with T3, p75 (Homo sapiens, UniProt P08138).
T3 construct: host or cells: 293T cells (p75)
T3 sequence (P08138 29-427): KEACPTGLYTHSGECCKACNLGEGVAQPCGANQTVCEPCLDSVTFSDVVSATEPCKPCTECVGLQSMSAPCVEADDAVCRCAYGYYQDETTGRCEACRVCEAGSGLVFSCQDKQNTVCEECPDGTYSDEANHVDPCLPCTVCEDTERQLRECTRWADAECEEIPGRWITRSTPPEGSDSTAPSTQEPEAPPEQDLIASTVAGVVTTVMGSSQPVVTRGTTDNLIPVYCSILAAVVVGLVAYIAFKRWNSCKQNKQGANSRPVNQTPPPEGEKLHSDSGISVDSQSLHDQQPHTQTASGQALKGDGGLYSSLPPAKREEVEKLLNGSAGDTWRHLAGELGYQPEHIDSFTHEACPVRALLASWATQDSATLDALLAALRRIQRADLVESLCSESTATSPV
As to the kind of experiment: Co-precipitation of p75 and Rho GDI with purified recombinant proteins. Format: binding. The note with it: p75 precipitated from transfected 293T cells; purified recombinant proteins.

The subject of data set [7] is cerebellar neurons. As to the kind of experiment: Neurite outgrowth assay, post-natal cerebellar neurons. Format: cell-based, mice. The note with it: cerebellar neurons transfected with myc-tagged Rho GDI.
Data set [8] relates to N1E-115 cells. As to the kind of experiment: Growth and differentiation of N1E-115 cells. Format: cell-based. The conditions noted are these: for proliferation of N1E-115 cells: until 48 hours after transfection. As to the method:
Cells were seeded in 6-cm dishes, transfected, and were counted 1 and 2 days after transfection. The relative increases in the number of the cells are shown. The values are means±SEM of 3 independent experiments. *, p<0.01 compared with full-p21 (Student's t-test). There is no significant difference between GFP and GFP-ΔNLS-p21 transfected cells. […] N1E-115 cells were treated with DMSO, or transfected with GFP-full-p21 or GFP-ΔNLS-p21, then were harvested at 1, 2, 3 and 4 days. Arrowheads indicate hyperphosphorylated pRb, and the arrow indicates underphosphorylated pRb. […] Shown are photomicrographs of the cells transfected with each construct. […] N1E-115 cells exposed to Y-27632 (10 μM) for 30 minutes or expressing GFP, GFP-full-p21 or GFP-ΔNLS-p21 were categorized into 3 groups; the cells with long neurites (long neurite), cells with a round form (round), and cells with other forms (others). Data represent means±SEM of 3 independent experiments. *, p<0.05 compared with control. **, p<0.01 compared with control as well as full-p21 (Student's t-test).
(§1) NIH3T3 cells, N1E-115 cells and 293T cells were maintained in DMEM containing 10% fetal bovine serum. Lipofectamine 2000 (Invitrogen) was used for transfection. For the stress fiber formation assay, NIH3T3 cells were cultured in serum-free medium for 16 hours after transfection. Stress fiber formation was evoked by incubating the cells with 10% serum for 10 minutes. Hippocampal neurons were prepared from 18-day-old Sprague-Dawley rats, as previously described (Neumann, H. et al., Science. 269:549-552, 1995). Briefly, hippocampi were dissected and the meninges removed. The trimmed tissue was dissociated by trituration. The dissociated cells were plated on dishes pre-coated with poly-L-lysine (Sigma), and cultured in DMEM containing 10% fetal bovine serum for 24 hours. Then, the medium was replaced with DMEM with B27 supplement (Invitrogen), and the cells were transfected with GFP or GFP-ΔNLS-p21. Neuronal morphology was estimated at 24 hours after the transfection.

Data set [9] relates to NIH3T3 cells. The data set can be described thus: Stress fiber formation assay in NIH3T3 cells. Format: cell-based. The conditions noted are these: serum-starved 16 hours, 10% serum 10 minutes. As to the method: as §1
Data set [10] addresses T1, Rho-kinase. The data set can be described thus: Co-immunoprecipitation of p21 constructs and Rho-kinase in 293T cells. Format: cell-based. The note with it: anti-p21 antibody. As to the method: 293T cells were transfected with myc-Rho-kinase in combination with GFP-full-p21 or GFP-ΔNLS-p21. At 48 hours after transfection, the cells were lysed with 1 ml of lysis buffer (50 mM Tris-HCl (pH 7.5), 150 mM NaCl, 10% glycerol, 0.5% Nonidet-P40 including protease inhibitor cocktail tablets (Roche). The cell lysates were centrifuged at 13,000×g for 20 minutes, and the supernatant was collected. Immunoprecipitations were performed for 2 hours at 4° C. using an anti-p21 mouse monoclonal antibody (Santa Cruz Biotechnology) and 0.75 ml of the supernatant. The immunocomplexes were collected with protein G-Sepharose (Amersham Pharmacia Biotech) slurry (50% v/v), washed 4 times with lysis buffer, and subjected to SDS-PAGE. They were transferred to the polyvinylidene difluoride membranes and probed with the anti-myc rabbit polyclonal antibody (Santa Cruz Biotechnology). Interaction of endogenous proteins in N1E-115 cells was assessed in the same way using anti Rho-kinase antibody.

Data set [11] relates to hippocampal neurons. The data set can be described thus: Neurite outgrowth and branching of hippocampal neurons. Format: cell-based. The conditions noted are these: rat E18 hippocampal neurons, 24 hours after transfection. As to the method: as §1
Cultures of the hippocampal neurons from rat E18 embryos were used. […] Twenty-four hours after transfection, the cells were fixed and immunolabeled with β-tubulin III. The total neurite length per neuron, the axonal length, defined as the length of the longest neurite per neuron, the number of primary processes originating from the neuronal somata, and the number of branch points per neuron were determined (Neumann, H. et al., J. Neurosci. 22:854-862, 2002).

T1 sequence (Q28021 whole entry): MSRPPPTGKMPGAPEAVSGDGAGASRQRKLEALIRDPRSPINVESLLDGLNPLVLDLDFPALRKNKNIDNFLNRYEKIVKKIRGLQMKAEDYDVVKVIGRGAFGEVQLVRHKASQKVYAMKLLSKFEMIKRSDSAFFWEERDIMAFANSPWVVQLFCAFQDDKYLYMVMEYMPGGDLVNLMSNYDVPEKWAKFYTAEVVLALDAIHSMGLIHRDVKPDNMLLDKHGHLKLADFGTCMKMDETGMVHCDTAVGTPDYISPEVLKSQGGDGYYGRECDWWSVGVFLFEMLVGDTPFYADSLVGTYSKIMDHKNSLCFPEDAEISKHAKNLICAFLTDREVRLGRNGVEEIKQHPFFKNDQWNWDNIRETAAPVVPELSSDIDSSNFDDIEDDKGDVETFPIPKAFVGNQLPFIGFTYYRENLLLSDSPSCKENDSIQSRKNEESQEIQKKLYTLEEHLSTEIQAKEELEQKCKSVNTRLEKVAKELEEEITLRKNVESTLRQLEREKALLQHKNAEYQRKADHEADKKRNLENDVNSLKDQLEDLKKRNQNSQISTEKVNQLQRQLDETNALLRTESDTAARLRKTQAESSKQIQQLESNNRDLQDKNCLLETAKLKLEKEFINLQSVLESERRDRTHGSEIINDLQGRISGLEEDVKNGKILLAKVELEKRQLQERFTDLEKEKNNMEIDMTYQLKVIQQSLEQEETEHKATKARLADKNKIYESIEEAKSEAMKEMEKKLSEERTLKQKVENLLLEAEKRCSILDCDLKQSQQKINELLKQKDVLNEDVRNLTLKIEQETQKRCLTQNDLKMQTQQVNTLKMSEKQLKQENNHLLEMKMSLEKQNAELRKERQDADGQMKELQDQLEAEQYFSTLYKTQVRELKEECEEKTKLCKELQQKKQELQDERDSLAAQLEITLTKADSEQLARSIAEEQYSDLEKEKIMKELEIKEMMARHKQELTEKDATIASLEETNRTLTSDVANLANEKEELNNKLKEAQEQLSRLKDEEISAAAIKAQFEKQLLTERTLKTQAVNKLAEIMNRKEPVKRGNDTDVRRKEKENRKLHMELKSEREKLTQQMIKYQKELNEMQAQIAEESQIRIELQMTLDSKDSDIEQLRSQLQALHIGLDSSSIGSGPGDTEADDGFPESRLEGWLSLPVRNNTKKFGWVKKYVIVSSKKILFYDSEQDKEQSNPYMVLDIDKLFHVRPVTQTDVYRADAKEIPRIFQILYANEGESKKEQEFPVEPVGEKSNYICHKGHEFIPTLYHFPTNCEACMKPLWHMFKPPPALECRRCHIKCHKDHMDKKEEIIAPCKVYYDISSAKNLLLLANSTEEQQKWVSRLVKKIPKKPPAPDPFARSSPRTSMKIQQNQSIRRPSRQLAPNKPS
catalytic domain of Rho-kinase (GST-CAT), sequence (Q28021 6-553 limits assumed): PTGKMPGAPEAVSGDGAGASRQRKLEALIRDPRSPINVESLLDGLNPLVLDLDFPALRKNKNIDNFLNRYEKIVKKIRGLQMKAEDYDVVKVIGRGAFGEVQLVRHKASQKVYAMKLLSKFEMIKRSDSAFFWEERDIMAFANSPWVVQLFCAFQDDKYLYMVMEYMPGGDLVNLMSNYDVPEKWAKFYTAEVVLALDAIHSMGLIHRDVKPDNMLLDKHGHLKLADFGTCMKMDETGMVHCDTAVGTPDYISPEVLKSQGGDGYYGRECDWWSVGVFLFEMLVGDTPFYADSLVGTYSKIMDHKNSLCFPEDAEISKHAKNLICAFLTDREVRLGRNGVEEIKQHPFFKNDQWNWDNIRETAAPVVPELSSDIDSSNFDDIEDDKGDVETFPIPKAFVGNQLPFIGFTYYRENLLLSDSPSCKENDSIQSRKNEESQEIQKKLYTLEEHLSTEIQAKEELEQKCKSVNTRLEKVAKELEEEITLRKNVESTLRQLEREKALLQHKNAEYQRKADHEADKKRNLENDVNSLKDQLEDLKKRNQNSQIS

For `Cn1c2ccccc2c2c3c(c4c5ccccc5n(CCC#N)c4c21)CNC3=O` [G06976], the “neurite outgrowth response to MAG-Fc or Nogo peptide with another PKC inhibitor” value in data set [1] is “Same results were obtained”.

With `C[C@@H](N)[C@H]1CC[C@H](C(=O)Nc2ccncc2)CC1` [Y-27632, reference compound], the “interaction of p21 with Rho-kinase” value in data set [2] is “inhibited the interaction of p21 with Rho-kinase in a dose dependent manner”. In [3], the “Rho-kinase activity (compared to the original)” value is reported as 51.9%. The “neurite formation / population with long neurites” value in [4] is “induced significant neurite formation”.

As for “AKRRRLSSLRA [S6 kinase substrate peptide]”, the “interaction of p21 with Rho-kinase” value in [2] was “inhibited the interaction of p21 with Rho-kinase in a dose dependent manner”.

Regarding GD1a, in [5], the “association with recombinant p75 extracellular domain fused to Fc” value is recorded as “did not see any interaction”.

Consider GT1b, for which, in data set [5], the “association with recombinant p75 extracellular domain fused to Fc” value is given as “binds to p75 in a manner that is SDS-resistant”.

Regarding “Rho GDI: Rho GDP dissociation inhibitor; recombinant protein or myc-tagged Rho GDI plasmid over-expression”, the “direct physical interaction with p75” value in data set [6] is reported as “bound to p75”. The “effect of over-expression on inhibition of neurite outgrowth by MAG and the Nogo peptide” value in data set [7] is “abolished these inhibitory effects”.

Turning to “RhoA: bacterially produced RhoA, GDP-bound, GTP-bound or nucleotide-depleted”, in [6], the “direct physical interaction with p75” value is recorded as “no interaction between them in any nucleotide state”.

Take “full-length p21: pEGFP-full-p21 (aa 1-164), mammalian expression vector for GFP fused protein”: the “proliferation of N1E-115 cells” value in data set [8] was “stopped proliferation”. For the same molecule, in data set [9], the “actin stress fiber formation after the addition of serum” value is given as “Extensive actin stress fibers were observed”. For the same molecule, the “Rho-kinase activity (compared to the original)” value in data set [3] was “no significant effect”. In addition, the “co-immunoprecipitation of myc-tagged Rho-kinase” value in [10] was “only a faint signal could be detected”. Also, the “neurite formation / population with long neurites” value in data set [4] is recorded as “no increase in the cell population that had long neurites”.

With “ΔNLS-p21: p21 with loss of nuclear localization signal (aa 1-140), expressed as GFP fused protein”, the differentiation inducing activity entry in [8] (cyclin D3 and pRb Western blot) is reported as “has no differentiation inducing activity”. Moreover, the “proliferation of N1E-115 cells” value in data set [8] is listed as “proliferated until 48 hours after transfection”. For the same molecule, the “actin stress fiber formation after the addition of serum” value in [9] was “little stress fiber formation”. Moreover, the “number of primary processes” value in [11] is listed as “no change in the number of primary processes”. Also, in data set [11] (control 1.3), the “number of branch points per neuron” value is 2.6. The “axonal length (length of the longest neurite per neuron)” value in data set [11] (control 66.3) came out at 162.9 μm. The “total neurite length per neuron” value in data set [11] (control 135.9) worked out at 307.2 μm. Besides, the “Rho-kinase activity (compared to the original)” value in data set [3] was 48.1%. Besides, the “co-immunoprecipitation of myc-tagged Rho-kinase” value in [10] was “efficiently precipitated myc-tagged Rho-kinase”. Moreover, in data set [4] (48 hours after transfection), the “cells that extended long neurites” value is recorded as “more than 45%” and the “increase of cells with long neurites compared to the control” value is 3.1 fold.
